Entries after “also recorded” stand apart in the source; their conditions may differ.
Columns and labels:
Type in all cases: binding
ELIC-α1^W246LGABAAR [1] = target: T1, ELIC-α1^W246LGABAAR (Homo sapiens, UniProt P14867, W273L); assay: Inhibition of MQ290 FRET by NS in W246L receptors; conditions: 30 μM NS; MQ290 1 μM
Procedure: (§1) One hundred microlitres of ELIC-α1GABAAR (0.3 μM) was transferred into a 50-μl window quartz cuvette maintained at 4°C, and NaI was added to the protein sample to a final concentration of 100 mM and incubated for 10 min. MQ290 was then added at a concentration of 3 μM for 3α-OH NS inhibition curves or 1 μM for 3β-OH NS inhibition curves and incubated for 30 min. One-microlitre aliquots of 3α-OH and 3β-OH NS from their corresponding stock solutions (prepared in Buffer A + 0.015% DDM) were added to achieve concentrations between 0.01 and 30 μM. The background emission spectra of ligands alone were obtained for each ligand concentration in the absence of protein and were subtracted from the protein-ligand emission spectra to yield background subtracted data. The MQ290 FRET spectra for different ligand concentrations were estimated using the method described above. The 370-nm intensities of the FRET spectra were plotted against ligand concentration and fitted to a four-parameter logistic curve to obtain IC50 data (GraphPad Software version 9.4.0, San Diego, CA). Ki values were calculated using the relationship: Ki=IC50/1+LT/Kd

ELIC-α1GABAAR [2] = target: T2, ELIC-α1GABAAR (Homo sapiens, UniProt P14867); assay: KK200 photolabelling competition, middle-down MS; conditions: 3 μM KK200, 30 μM competitor
Procedure: The synthesis of the NS photolabelling reagent KK200 is detailed in previous reports ([W. W. L. Cheng et al., 2018]; [Jiang et al., 2016]). […] The samples were then irradiated in a quartz cuvette for 5 min, using a photoreactor emitting light at >320 nm ([Germann et al., 2021]). Sample preparation for tryptic digestion and analysis by LC–MS was performed as previously described ([Sugasawa et al., 2019]). Peptides were separated on a home-packed PLRP-S (Agilent, Santa Clara, CA, USA) column (10 cm × 75 μm, 300 Å) using a 135-min gradient from 10% to 90% acetonitrile and introduced to an Orbitrap-Elite mass spectrometer (Thermo Fisher Scientific, Waltham, MA, USA; RRID:SCR_020548) at 800 nl·min^−1 with a nanospray source. MS acquisition was set as an MS1 Orbitrap scan (resolution of 60,000) followed by top 20 MS2 Orbitrap scans (resolution of 15,000) using data-dependent acquisition and exclusion of singly charged precursors. Fragmentation was performed using high-energy dissociation with normalized energy of 35%. Analysis of data sets was performed using Xcalibur (Thermo Fisher Scientific, Waltham, MA, USA; RRID: SCR_014593) to manually search for TM1, TM2, TM3 or TM4 tryptic peptides with or without NS photolabelling modifications. Photolabelling efficiency was estimated by generating extracted chromatograms of unlabelled and labelled peptides, determining the area under the curve, and calculating the (area of labelled peptide/(area of unlabelled + area of labelled peptide). MS2 spectra of photolabelled TMD peptides were analysed by manual assignment of fragment ions with and without photolabelling modification.

ELIC-α1GABAAR [3] = target: T2, ELIC-α1GABAAR
Procedure: as §1
where LT is the concentration of MQ290 and Kd was determined from the MQ290 binding curve.

ELIC-α1^W246LGABAAR [4] = target: T1, ELIC-α1^W246LGABAAR; assay: biochemical
Procedure: ELIC-α1GABAAR was expressed and purified according to a previously published protocol ([Q. Chen et al., 2018]). The purified protein was aliquoted and stored at −80°C. Mutagenesis was performed as described in previous reports ([Kinde et al., 2016]) by oligonucleotide-directed mutagenesis using Phu polymerase (Thermo Fisher Scientific, Waltham, MA, USA) verified by sequencing. ELIC-α1GABAAR was expressed in OverExpress™ C43(D3) E. coli, derived from Rosetta™(DE3) cells under double selection with kanamycin and chloramphenicol for ELIC-α1GABAAR.
One hundred microlitres of purified ELIC-α1GABAAR (0.3 μM in Buffer A + 0.015% DDM) was transferred into a 50-μl window quartz cuvette (Starna Cells, Atascadero, CA, USA), which was placed in a cuvette holder maintained at 4°C. […] Two microlitres of NaI (AK Scientific, Union City, CA, USA; 5-M stock prepared in 0.1-Mm sodium hydrosulfite [Sigma-Aldrich, St. Louis, MO, USA]) was added to the protein (final concentration = 100 mM) and incubated for 10 min to reduce the fluorescence emission from hydrophilic tryptophans. To measure the concentration–dependent effects of NS on tryptophan fluorescence, 1 μl of NS from each 100× stock solution was sequentially added to the NaI-equilibrated protein and thoroughly mixed to achieve concentrations from 0.01 to 50 μM. […]

T2 sequence (P14867 other isoform, or with tags, fused parts or gaps): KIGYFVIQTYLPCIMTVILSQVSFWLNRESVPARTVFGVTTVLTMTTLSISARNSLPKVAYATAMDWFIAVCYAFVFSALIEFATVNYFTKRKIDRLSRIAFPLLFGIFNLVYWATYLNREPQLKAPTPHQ
T2 sequence (P0C7B7 1-198, further chain): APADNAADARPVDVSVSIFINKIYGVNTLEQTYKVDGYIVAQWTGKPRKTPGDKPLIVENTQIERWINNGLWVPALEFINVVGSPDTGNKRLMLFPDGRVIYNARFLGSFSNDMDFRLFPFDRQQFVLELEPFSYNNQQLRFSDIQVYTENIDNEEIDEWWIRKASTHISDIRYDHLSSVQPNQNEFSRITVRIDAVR
T1 sequence (P14867 other isoform, or with tags, fused parts or gaps W273L): as the sequence (P14867 other isoform, or with tags, fused parts or gaps) above, with W25L counted along it
T1 sequence (P0C7B7 1-198, further chain): as the sequence (P0C7B7 1-198, further chain) above

In the case of `CC(=O)[C@H]1CC[C@H]2[C@@H]3CC[C@H]4C[C@@H](O)CC[C@]4(C)[C@H]3CC[C@]12C` [Epi-AlloP, epi-allopregnanolone], the “inhibition of remaining MQ290 FRET signal in W246L” value (ELIC-α1^W246LGABAAR [1]) is reported as “reduced by neither”, the “prevention of KK200 photolabelling of TM3 (Y309)” value (ELIC-α1GABAAR [2]) is reported as “not significantly different than control; also recorded: did not” and the Hill slope (ELIC-α1GABAAR [3]; 3β-OH NS, MQ290 1 μM) is reported as −0.68 ± 0.45. The “mechanism of inhibition of MQ290 binding” value (ELIC-α1GABAAR [3]; MQ290 binding curves with 3×Kd and 30 μM NS) was “allosteric mechanism of inhibition” and the IC50 (ELIC-α1^W246LGABAAR [4]) was 340 ± 130 nM.
